Source: PMC9250534, “Synthesis and direct assay of large macrocycle diversities by combinatorial late-stage modification at picomole scale” (Nature Communications, 2022)

Target: MDM2 (Homo sapiens, UniProt Q00987)
Assay: MDM2 binding screen: displacement of fluorescent p53 peptide probe FP53 (fluorescence polarization)
Settings: for fraction fluorescent probe displaced, Screen: initial screen; for fraction fluorescent probe displaced, Screen / fraction fluorescent probe displaced, Replicate: crude macrocycle reactions
Method: We screened Library 2 in 384-microwell plates by dispensing the target protein MDM2 and reporter peptide into the wells containing the macrocycle reactions.
The products were screened for displacement of a p53-based fluorescent peptide from human MDM2. Final macrocycle concentrations were 10 µM. For each macrocycle, the MDM2 binding was measured once.
One fluorescence anisotropy reading was taken with a Tecan Infinite F200 Pro fluorescence plate reader (excitation at 485 nm, emission at 535 nm) at 25 °C. Data was collected and exported using the Tecan Infinite M200 Pro instrument software. The data was analyzed by Excel (version 2016).

[1] = crude reaction of macrocycle scaffold with Acid 25, (initial screen)
[2] = crude reaction of macrocycle scaffold with Acid 25, replicate
[3] = crude reaction of macrocycle scaffold with Acid 91, (initial screen)
[4] = crude reaction of macrocycle scaffold with Acid 91, replicate

Chain of MDM2 (Q00987 whole entry): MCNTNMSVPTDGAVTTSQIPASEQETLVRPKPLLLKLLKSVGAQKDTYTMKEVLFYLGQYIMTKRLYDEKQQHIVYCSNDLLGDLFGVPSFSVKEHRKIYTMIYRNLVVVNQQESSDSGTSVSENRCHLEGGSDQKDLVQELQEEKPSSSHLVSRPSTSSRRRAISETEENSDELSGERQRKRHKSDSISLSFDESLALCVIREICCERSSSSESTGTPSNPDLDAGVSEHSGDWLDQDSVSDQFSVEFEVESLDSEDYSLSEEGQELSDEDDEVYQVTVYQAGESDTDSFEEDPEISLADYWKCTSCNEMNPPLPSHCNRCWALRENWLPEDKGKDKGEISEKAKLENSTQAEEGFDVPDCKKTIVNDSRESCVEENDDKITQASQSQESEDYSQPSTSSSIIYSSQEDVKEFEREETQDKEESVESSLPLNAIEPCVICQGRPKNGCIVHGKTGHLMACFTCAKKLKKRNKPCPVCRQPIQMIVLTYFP

Structure (SMILES) | fraction fluorescent probe displaced, Screen (Acid 91) | fraction fluorescent probe displaced, Replicate (Acid 91, replicate) | fraction fluorescent probe displaced, Screen (Acid 25) | fraction fluorescent probe displaced, Replicate (Acid 25, replicate) | further results
O=C(/C=C/c1ccccc1)NC[C@@H]1NC(=O)[C@H](Cc2ccccc2)NC(=O)CCNC(=O)CCSSCCNC1=O [X B2 F D3 Acid 91] | 0.03 | -0.11 | – | – | –
O=C1CCSSCCNC(=O)C2CC(NC(=O)c3ccc(Cl)s3)CN2C(=O)C(Cc2ccccc2)NC(=O)CCN1 (stereo not drawn) [X B2 F D5 Acid 14] | – | – | – | – | fraction fluorescent probe displaced, Screen (Acid 14): 0.14; fraction fluorescent probe displaced, Replicate (Acid 14, replicate): 0.07
O=C(C=Cc1ccccc1)NC1CC2C(=O)NCCSSCCC(=O)NCCC(=O)NC(Cc3ccccc3)C(=O)N2C1 (stereo not drawn) [X B2 F D5 Acid 91] | 0.00268 | -0.08 | – | – | –
O=C1CCSSCCNC(=O)C2(CCN(C(=O)c3ccc(Cl)s3)CC2)NC(=O)[C@H](Cc2ccccc2)NC(=O)CCN1 [X B2 F D6 Acid 14] | – | – | – | – | fraction fluorescent probe displaced, Screen (Acid 14): 0.08; fraction fluorescent probe displaced, Replicate (Acid 14, replicate): 0.12
O=C1CCSSCCNC(=O)C2(CCN(C(=O)c3ccc(Cl)cc3)CC2)NC(=O)[C@H](Cc2ccccc2)NC(=O)CCN1 [X B2 F D6 Acid 25] | – | – | -0.17 | 0.0465 | –
O=C1CCSSCCNC(=O)C2(CCN(C(=O)/C=C/c3ccccc3)CC2)NC(=O)[C@H](Cc2ccccc2)NC(=O)CCN1 [X B2 F D6 Acid 91] | 0.0563 | 0.12 | – | – | –
O=C1CCSSCCNC(=O)C2CN(C(=O)C=Cc3ccccc3)CCN2C(=O)C(Cc2ccccc2)NC(=O)CCN1 (stereo not drawn) [X B2 F D7 Acid 91] | 0.03 | -0.00827 | – | – | –
O=C1CCSSCCNC(=O)[C@H](CNC(=O)c2ccc(Cl)cc2)NC(=O)[C@H](Cc2c[nH]c3ccccc23)NC(=O)CCN1 [X B2 W D3 Acid 25] | – | – | 0.19 | 0.22 | –
O=C(/C=C/c1ccccc1)NC[C@@H]1NC(=O)[C@H](Cc2c[nH]c3ccccc23)NC(=O)CCNC(=O)CCSSCCNC1=O [X B2 W D3 Acid 91] | 0.14 | 0.07 | – | – | –
O=C1CCSSCCNC(=O)[C@@H]2C[C@H](NC(=O)c3ccc(Cl)s3)CN2C(=O)[C@H](Cc2c[nH]c3ccccc23)NC(=O)CCN1 [X B2 W D5 Acid 14] | – | – | – | – | fraction fluorescent probe displaced, Screen (Acid 14): 0.11; fraction fluorescent probe displaced, Replicate (Acid 14, replicate): 0.15
O=C1CCSSCCNC(=O)C2CC(NC(=O)c3ccc(Cl)cc3)CN2C(=O)C(Cc2c[nH]c3ccccc23)NC(=O)CCN1 (stereo not drawn) [X B2 W D5 Acid 25] | – | – | 0.19 | 0.22 | –
O=C1CCSSCCNC(=O)C2(CCN(C(=O)c3ccc(Cl)s3)CC2)NC(=O)[C@H](Cc2c[nH]c3ccccc23)NC(=O)CCN1 [X B2 W D6 Acid 14] | – | – | – | – | fraction fluorescent probe displaced, Screen (Acid 14): 0.14; fraction fluorescent probe displaced, Replicate (Acid 14, replicate): 0.0465
O=C1CCSSCCNC(=O)C2(CCN(C(=O)c3ccc(Cl)cc3)CC2)NC(=O)[C@H](Cc2c[nH]c3ccccc23)NC(=O)CCN1 [X B2 W D6 Acid 25] | – | – | 0.0244 | 0.0211 | –
O=C1CCSSCCNC(=O)C2(CCN(C(=O)C=Cc3ccccc3)CC2)NC(=O)C(Cc2c[nH]c3ccccc23)NC(=O)CCN1 (stereo not drawn) [X B2 W D6 Acid 91] | 0.0563 | 0.07 | – | – | –
O=C1CCSSCCNC(=O)C2CN(C(=O)c3ccc(Cl)cc3)CCN2C(=O)C(Cc2c[nH]c3ccccc23)NC(=O)CCN1 (stereo not drawn) [X B2 W D7 Acid 25] | – | – | 0.0569 | 0.10 | –
O=C(NCC1NC(=O)C2CCCN(C2)C(=O)CCSSCCNC(=O)C(Cc2ccccc2)NC1=O)c1ccc(Cl)s1 (stereo not drawn) [X B4 D3 F Acid 14] | – | – | – | – | fraction fluorescent probe displaced, Screen (Acid 14): 0.14; fraction fluorescent probe displaced, Replicate (Acid 14, replicate): 0.15
O=C(NC[C@@H]1NC(=O)[C@H]2CCCN(C2)C(=O)CCSSCCNC(=O)[C@H](Cc2ccccc2)NC1=O)c1ccc(Cl)cc1 [X B4 D3 F Acid 25] | – | – | 0.09 | 0.12 | –
O=C(NC[C@@H]1NC(=O)[C@H]2CCCN(C2)C(=O)CCSSCCNC(=O)[C@H](Cc2c[nH]c3ccccc23)NC1=O)c1ccc(Cl)s1 [X B4 D3 W Acid 14] | – | – | – | – | fraction fluorescent probe displaced, Screen (Acid 14): 0.63; fraction fluorescent probe displaced, Replicate (Acid 14, replicate): 0.58
O=C(C=Cc1ccccc1)NCC1NC(=O)C2CCCN(C2)C(=O)CCSSCCNC(=O)C(Cc2c[nH]c3ccccc23)NC1=O (stereo not drawn) [X B4 D3 W Acid 91] | 0.81 | 0.49 | – | – | –
O=C(N[C@H]1C[C@H]2C(=O)N[C@@H](Cc3c[nH]c4ccccc34)C(=O)NCCSSCCC(=O)N3CCC[C@@H](C3)C(=O)N2C1)c1ccc(Cl)s1 [X B4 D5 W Acid 14] | – | – | – | – | fraction fluorescent probe displaced, Screen (Acid 14): 0.11; fraction fluorescent probe displaced, Replicate (Acid 14, replicate): 0.0211

Structure (SMILES) | fraction fluorescent probe displaced, Screen (Acid 91) | fraction fluorescent probe displaced, Replicate (Acid 91, replicate) | fraction fluorescent probe displaced, Screen (Acid 25) | fraction fluorescent probe displaced, Replicate (Acid 25, replicate) | further results
O=C1NC2(CCN(C(=O)c3ccc(Cl)s3)CC2)C(=O)N[C@@H](Cc2ccccc2)C(=O)NCCSSCCC(=O)N2CCC[C@H]1C2 [X B4 D6 F + Acid 14] | – | – | – | – | fraction fluorescent probe displaced (crude reaction of macrocycle scaffold with Acid 14, (initial screen)): 0.25; fraction fluorescent probe displaced (crude reaction of macrocycle scaffold with Acid 14, replicate): 0.12
O=C1NC2(CCN(C(=O)c3ccc(Cl)cc3)CC2)C(=O)N[C@@H](Cc2ccccc2)C(=O)NCCSSCCC(=O)N2CCC[C@H]1C2 [X B4 D6 F + Acid 25] | – | – | – | – | fraction fluorescent probe displaced [1]: 0.0462; fraction fluorescent probe displaced [2]: 0.10
O=C1NC2(CCN(C(=O)/C=C/c3ccccc3)CC2)C(=O)N[C@@H](Cc2ccccc2)C(=O)NCCSSCCC(=O)N2CCC[C@H]1C2 [X B4 D6 F + Acid 91] | – | – | – | – | fraction fluorescent probe displaced [3]: 0.12; fraction fluorescent probe displaced [4]: 0.12
O=C1NC2(CCN(C(=O)c3ccc(Cl)cc3)CC2)C(=O)N[C@@H](Cc2c[nH]c3ccccc23)C(=O)NCCSSCCC(=O)N2CCC[C@H]1C2 [X B4 D6 W Acid 25] | – | – | 0.38 | 0.25 | –
O=C1NC2(CCN(C(=O)/C=C/c3ccccc3)CC2)C(=O)N[C@@H](Cc2c[nH]c3ccccc23)C(=O)NCCSSCCC(=O)N2CCC[C@H]1C2 [X B4 D6 W Acid 91] | 0.16 | 0.09 | – | – | –
O=C1NCCSSCCC(=O)N2CCCC(C2)C(=O)N2CCN(C(=O)c3ccc(Cl)cc3)CC2C(=O)NC1Cc1ccccc1 (stereo not drawn) [X B4 D7 F + Acid 25] | – | – | – | – | fraction fluorescent probe displaced [1]: 0.15; fraction fluorescent probe displaced [2]: 0.10
O=C1NCCSSCCC(=O)N2CCCC(C2)C(=O)N2CCN(C(=O)c3ccc(Cl)cc3)CC2C(=O)NC1Cc1c[nH]c2ccccc12 (stereo not drawn) [X B4 D7 W Acid 25] | – | – | 0.32 | 0.17 | –
O=C(NC[C@@H]1NC(=O)[C@H](Cc2ccccc2)NC(=O)[C@H]2CCCN(C2)C(=O)CCSSCCNC1=O)c1ccc(Cl)s1 [X B4 F D3 Acid 14] | – | – | – | – | fraction fluorescent probe displaced, Screen (Acid 14): 0.08; fraction fluorescent probe displaced, Replicate (Acid 14, replicate): 0.10
O=C(NC[C@@H]1NC(=O)[C@H](Cc2ccccc2)NC(=O)[C@H]2CCCN(C2)C(=O)CCSSCCNC1=O)c1ccc(Cl)cc1 [X B4 F D3 Acid 25] | – | – | 0.09 | 0.12 | –
O=C(C=Cc1ccccc1)NCC1NC(=O)C(Cc2ccccc2)NC(=O)C2CCCN(C2)C(=O)CCSSCCNC1=O (stereo not drawn) [X B4 F D3 Acid 91] | 0.03 | -0.00827 | – | – | –
O=C(NC1CC2C(=O)NCCSSCCC(=O)N3CCCC(C3)C(=O)NC(Cc3ccccc3)C(=O)N2C1)c1ccc(Cl)cc1 (stereo not drawn) [X B4 F D5 Acid 25] | – | – | 0.0569 | 0.12 | –
O=C(C=Cc1ccccc1)NC1CC2C(=O)NCCSSCCC(=O)N3CCCC(C3)C(=O)NC(Cc3ccccc3)C(=O)N2C1 (stereo not drawn) [X B4 F D5 Acid 91] | -0.05 | -0.0333 | – | – | –
O=C1NC(Cc2ccccc2)C(=O)NC2(CCN(C(=O)c3ccc(Cl)cc3)CC2)C(=O)NCCSSCCC(=O)N2CCCC1C2 (stereo not drawn) [X B4 F D6 + Acid 25] | – | – | – | – | fraction fluorescent probe displaced [1]: 0.09; fraction fluorescent probe displaced [2]: 0.17
O=C1N[C@@H](Cc2ccccc2)C(=O)NC2(CCN(C(=O)/C=C/c3ccccc3)CC2)C(=O)NCCSSCCC(=O)N2CCC[C@H]1C2 [X B4 F D6 + Acid 91] | – | – | – | – | fraction fluorescent probe displaced [3]: 0.08; fraction fluorescent probe displaced [4]: 0.0168
O=C1NC(Cc2ccccc2)C(=O)N2CCN(C(=O)c3ccc(Cl)cc3)CC2C(=O)NCCSSCCC(=O)N2CCCC1C2 (stereo not drawn) [X B4 F D7 Acid 25] | – | – | 0.09 | 0.10 | –
O=C1NC(Cc2ccccc2)C(=O)N2CCN(C(=O)C=Cc3ccccc3)CC2C(=O)NCCSSCCC(=O)N2CCCC1C2 (stereo not drawn) [X B4 F D7 Acid 91] | 0.00268 | -0.00827 | – | – | –
O=C(NC[C@@H]1NC(=O)[C@H](Cc2c[nH]c3ccccc23)NC(=O)[C@H]2CCCN(C2)C(=O)CCSSCCNC1=O)c1ccc(Cl)s1 [X B4 W D3 Acid 14] | – | – | – | – | fraction fluorescent probe displaced, Screen (Acid 14): 0.11; fraction fluorescent probe displaced, Replicate (Acid 14, replicate): 0.10
O=C(NCC1NC(=O)C(Cc2c[nH]c3ccccc23)NC(=O)C2CCCN(C2)C(=O)CCSSCCNC1=O)c1ccc(Cl)cc1 (stereo not drawn) [X B4 W D3 Acid 25] | – | – | 0.09 | 0.22 | –
O=C(/C=C/c1ccccc1)NC[C@@H]1NC(=O)[C@H](Cc2c[nH]c3ccccc23)NC(=O)[C@H]2CCCN(C2)C(=O)CCSSCCNC1=O [X B4 W D3 Acid 91] | 0.16 | 0.09 | – | – | –
